Like-named read-outs stand apart in the source and are kept apart here.

The conditions of data set [1]: cited from earlier work.
For data set [2] the following is noted: cited from earlier work. This is another data set of the same source.
For data set [3] the following is noted: cited from earlier work. The source holds these as a separate data set.
For data set [4] the following is noted: cited from earlier work. The source holds these as a separate data set.
The conditions of data set [5]: in vivo; cited from earlier work.
For data set [6] the following is noted: cited from earlier work. The source holds these as a separate data set.
Data set [7] has as its system EGFR^ex19del/T790M PDX NSCLC tumor fragments (TM00219, Jackson Labs). Put plainly: Example 4: Compound IV +/- osimertinib in EGFR ex19del/T790M PDX model. Type of data set: in vivo, NSG mice. The conditions noted are these: once daily oral gavage 28 days; Compound IV 100 mg/kg or osimertinib 2.5 mg/kg alone. The source says:
(§1) The x-axis is days from initiation measured in time and the y-axis is mean tumor volume measured in mm^3.
The x-axis is days from initiation measured in time and the y-axis is median tumor volume measured in mm^3.
After 28 days tumors continued to be measured until they reached tumor burden (>2000 mm^3).

The subject of data set [8] is EGFR^ex20ins PDX NSCLC tumor fragments (LU0387, CrownBio). Nature of the data set: Example 5: Compound IV +/- osimertinib in EGFR ex20ins PDX model. Type of data set: in vivo, BALB/c nude mice. The conditions noted are these: once daily oral gavage, 17 days; Compound IV 100 mg/kg or osimertinib 10 mg/kg alone.
Excerpt: as §1
Tumors continued to be measured until they reached tumor burden (>3000 mm3).

The conditions of data set [9]: human, in vivo; cited from earlier work.
For data set [10] the following is noted: cited from earlier work; for Grade ≥3 decrease in neutrophil count: laboratory findings.
[11] abbreviates: all grades, GILOTRIF n=229, pemetrexed/cisplatin n=111.

In the case of `CN(C)C/C=C/C(=O)Nc1cc2c(Nc3ccc(F)c(Cl)c3)ncnc2cc1O[C@H]1CCOC1` [GILOTRIF, afatinib], in data set [1] (3865 patients), the “fatal liver test abnormalities” value is 0.18% and the liver test abnormalities is given as 10.1%. Further, in data set [1] (setting [11]), the diarrhea is given as 96%, the dry skin was 31%, the paronychia is recorded as 58% and the pruritus is given as 21%. Besides, in data set [1] (setting [11]), the rash/acneiform dermatitis is reported as 90% and the stomatitis was 71%. In data set [1] (human, in vivo), the decreased appetite is 29%, the fatal pneumonia is recorded as 0.43%, the “fatal pulmonary toxicity/interstitial lung disease (ILD)-like adverse reactions” value is 1.3% and the fatal sepsis was 0.43%. Besides, in data set [1] (human, in vivo), the nausea is reported as 25%, the “serious adverse reaction: diarrhea” value is given as 6.6%, the “serious adverse reaction: dyspnea” value is given as 1.7% and the “serious adverse reaction: fatigue” value was 1.7%. For the same compound, in data set [1] (human, in vivo), the “serious adverse reaction: hypokalemia” value was 1.7%, the “serious adverse reaction: vomiting” value is 4.8%, the serious adverse reactions is 29% and the “ventricular dysfunction (all <Grade 3)” value is given as 2.2%. In addition, the vomiting in data set [1] (human, in vivo) was 23%.

Take `COc1cc2ncnc(Nc3ccc(F)c(Cl)c3)c2cc1OCCCN1CCOCC1` [IRESSA, gefitinib]: in data set [2] (across NSCLC), the skin reactions is 47%. For the same compound, in [2] (human, in vivo), the “incidence of fatal hepatotoxicity” value is recorded as 0.04%.

Consider `CN(C)C(=O)c1cc2cnc(Nc3ccc(N4CCNCC4)cn3)nc2n1C1CCCC1` [ribociclib], for which, in data set [3] (KISQALI treatment arms), the “Grade 3 or 4 increases in ALT” value is 10% and the “Grade 3 or 4 increases in AST” value is listed as 7%. The “patients with at least one average QTcF interval of more than 480 msec after baseline” value in data set [3] (MONALEESA-2 study) is 3.3%. In data set [3] (adverse reaction), the alopecia is 33%, the back pain was 20%, the constipation was 25% and the diarrhea is 35%. Further, in data set [3] (adverse reaction), the fatigue is 37%, the headache is 22%, the leukopenia is 33% and the neutropenia is on record as 75%. Besides, the vomiting in data set [3] (adverse reaction) was 29%. Further, the “Grade 3/4 decrease in neutrophil count” value in data set [3] (based on laboratory findings) is given as 60%. The “treatment discontinuation due to increased ALT” value in data set [3] (first mention) is listed as 4%. In addition, in data set [3] (human, in vivo), the QT interval result was “prolong the QT interval in a concentration-dependent manner”, the “dose reductions due to adverse reactions” value is 45%, the “permanent discontinuations due to ARs” value is 7% and the “treatment discontinuation due to vomiting” value was 2%. Further, the “treatment discontinuation due to increased ALT” value in data set [3] (second mention) was 3%.

Take `CC(=O)c1c(C)c2cnc(Nc3ccc(N4CCNCC4)cn3)nc2n(C2CCCC2)c1=O` [palbociclib]: the incidence of neutropenia in data set [4] (Study 1 (PALOMA-2)) is 80%. For the same compound, in data set [4] (Study 2 (PALOMA-3)), the incidence of neutropenia is listed as 83%. Also, in data set [4] (human, in vivo), the complete drug discontinuation was 8%, the “median duration of Grade ≥3 neutropenia” value is 7 days, the “median time to first episode of any grade neutropenia” value was 15 days and the “patients requiring a dose interruption” value is reported as 71%. In addition, the “patients requiring a dose reduction” value in data set [4] (human, in vivo) is 36%. The “Grade ≥3 decrease in neutrophil counts” value in [4] (patients in PALOMA-2 and PALOMA-3) is 66%. Further, in data set [4] (patients treated), the increased alanine transferase is 40% and the “increased aspartate aminotransferase (AST)” value is reported as 48%. Also, the T½ entry in data set [5] is reported as “roughly 27 hours”.

With `C#Cc1cccc(Nc2ncnc3cc(OCCOC)c(OCCOC)cc23)c1.Cl` [TARCEVA, erlotinib], in [6] (approximately 32,000 patients, all studies), the “overall incidence of ILD” value is “approximately 1.1%”. Also, in [6] (human, in vivo), the “discontinued therapy due to adverse reactions” value is listed as 14.3%, the “dose interruptions or reductions due to adverse reactions” value is on record as 37%, the “dose modification due to asthenia” value is listed as 3.6% and the “dose modification due to diarrhea” value is recorded as 10%. For the same compound, in data set [6] (human, in vivo), the “dose modification due to rash” value was 13%; the “liver function test abnormalities (ALT, AST, bilirubin)” value was “Grade 2 and Grade 3 liver function test abnormalities”; the “median time to onset of diarrhea” value is 32 days; the “median time to onset of rash” value is recorded as 15 days. Further, in data set [6] (human, in vivo), the “most frequent Grade 3-4 adverse reactions” value was “rash and diarrhea”; the “most frequent adverse reactions: diarrhea, asthenia, rash, cough, dyspnea, decreased appetite” value is ≥ 30%. Further, in data set [6] (patients with ILD), the “median onset of ILD symptoms after initiating therapy” value is listed as 39 days and the “onset of ILD symptoms after initiating therapy (span)” value is on record as “between 5 days to more than 9 months”.

`C=CC(=O)Nc1cc(Nc2nccc(-c3cn(C)c4ccccc34)n2)c(OC)cc1N(C)CCN(C)C` [osimertinib, reference compound]: the “tumor growth vs vehicle, single agent” value in data set [7] is reported as “modest tumor growth inhibition”. The “tumor growth vs vehicle, single agent” value in [8] is reported as “did not cause an effect”. In [9], the nail toxicity is listed as 22% and the “patients experiencing Grade 3 neutropenia” value is given as “up to 2.2%”.

Consider `CCN1CCN(Cc2ccc(Nc3ncc(F)c(-c4cc(F)c5nc(C)n(C(C)C)c5c4)n3)nc2)CC1` [abemaciclib], for which, in data set [10] (MONARCH 1), the “Grade ≥3 decrease in neutrophil count” value is 27%. Further, in data set [10] (alone, MONARCH 1), the “Grade 3 diarrhea” value was 20%, the diarrhea is 90% and the neutropenia was 37%. Further, in [10] (human, in vivo), the “alanine aminotransferase (ALT) increased” value is 41%, the “aspartate aminotransferase (AST) increased” value was 37%, the “dose reductions due to diarrhea of any grade” value is given as 19% and the “dose reductions due to neutropenia of any grade” value is 10%. For the same compound, the “permanent treatment discontinuation due to an adverse event” value in [10] (human, in vivo) is reported as 9%. In addition, in data set [10] (plus fulvestrant, MONARCH 2), the “Grade 3 diarrhea” value is given as 13%, the diarrhea is reported as 86%, the neutropenia is 46% and the “Grade ≥3 decrease in neutrophil count” value is recorded as 32%. The “dose reductions due to an adverse reaction” value in data set [10] (plus fulvestrant) is on record as 43%.
